Results published in patent US20040156816A1, “Lipid-drug complexes in reversed liquid and liquid crystalline phases” (priority 2002, published 2004).

Conditions: free acid ion-paired with arginine in Arlatone G / ginger oil / water cubic phase; overlain with large excess of water; two days
From the text: The antiosteolytic drug Alendronate (as the free acid) was incorporated into a cubic phase based on the ethoxylated, hydrogenated castor oil surfactant Arlatone G (from Uniquema).

## NCCCC(O)(P(=O)(O)O)P(=O)(O)O [alendronate, Alendronate]
  amount of alendronate which leaked out of the cubic phase into the water: undetectable
